The values below are quoted from earlier work in the CATMoS acute toxicity set (Mansouri et al. 2021).

“And” between values parts separate entries of the source, which are not always exact repeats. Equal entries are not always repeated.

A short description of the data set: rat acute oral toxicity. To be noted: in vivo.
Usually LD50 stands for the dose expected to kill half of the subjects tested. In the case of `C=CCC1=C(C)C(OC(=O)C2C(C=C(C)C)C2(C)C)CC1=O` (stereo unspecified), the median lethal dose (LD50) is 685 mg/kg.
As for `CC(C)c1ccc(CO)cc1`, the median lethal dose (LD50) was 1020 mg/kg.
With `CCOC(=O)[C@H](CCc1ccccc1)N[C@@H](C)C(=O)N1C(=O)N(C)C[C@H]1C(=O)O`, the median lethal dose (LD50) was 3540 mg/kg.
With `O=NN(Cc1ccccc1)Cc1ccccc1`, the 50% lethal dose (LD50) is 900 mg/kg.
As to `O=CC(Cl)CCl` (stereo unspecified), the LD50 was 160 mg/kg.
For the molecule `Cc1cc(NC(=O)c2ccccc2O)n(-c2ccccc2)n1`, the LD50 was 1320 mg/kg.
In the case of `COC(=O)C(C(=O)Cc1c(C)n(C(=O)c2ccc(Cl)cc2)c2ccc(OC)cc12)C(=O)OC`, the median lethal dose (LD50) was 208 mg/kg.
With `COP(=S)(OC)SCSCCOC(N)=O`, the median lethal dose (LD50) is 44 mg/kg.
Turning to `CS(=O)(=O)c1ccc(CN(CCO)C(=O)C(Cl)Cl)cc1`, the 50% lethal dose (LD50) is 12500 mg/kg.
In the case of `CCCCCCOC(=O)Oc1ccccc1C(=O)O`, the LD50 was 3450 mg/kg.
Take `CNC(=O)Oc1cccc2c1OC(C)(C)CC2`: the median lethal dose (LD50) is 3 mg/kg.
As for `O=C(O)CCC(=O)c1ccc(C2CCCCC2)c(Cl)c1`, the LD50 was 120 mg/kg and 300 mg/kg.
Regarding `OC[P+](CO)(CO)CO`, the median lethal dose (LD50) is 232 mg/kg.
As to `Fc1cc(Br)c2nc(C(F)(F)F)[nH]c2c1`, the LD50 was 5.65 mg/kg.
For the molecule `CC(C)CC(C)CC(O)CC(C)C` (stereo unspecified), the median lethal dose (LD50) is 17000 mg/kg.
For `CC(C)c1s[nH]c2nc(C(C)(C)C)nc(=O)c1-2`, the LD50 is 10200 mg/kg.
Turning to `O=C1C(Cl)=C(Cl)C(=O)C1=C(Cl)Cl`, the LD50 is 2300 mg/kg.
With `O=C(CF)Nc1ccc(F)cc1`, the median lethal dose (LD50) is 2 mg/kg.
With `CCOP(=S)(OCC)SC1CCC2C=CCC1S2` (stereo unspecified), the 50% lethal dose (LD50) was 140 mg/kg.
With `OCC1CC2CCC1C2` (stereo unspecified), the 50% lethal dose (LD50) is 1600 mg/kg.
As to `CCC(=C(c1ccc(OCCN(C)C)cc1)c1ccc(OP(=O)(O)O)cc1)c1ccc(C(C)C)cc1`, the median lethal dose (LD50) was 785 mg/kg.
As for `NC(=O)C1c2ccccc2CCc2ccccc21`, the median lethal dose (LD50) is 2400 mg/kg.
With `CCCCSC(=O)Oc1c(C(C)CC)cc([N+](=O)[O-])cc1[N+](=O)[O-]` (stereo unspecified), the LD50 was 147 mg/kg.
With `ClC1=C(Cl)C2(Cl)C(CBr)CC1(Cl)C2(Cl)Cl` (stereo unspecified), the LD50 is 12500 mg/kg.
For `CCOC(=O)CN1CCN(C(=O)C=Cc2cc(OC)c(OC)c(OC)c2)CC1`, the 50% lethal dose (LD50) was 4190 mg/kg.
Consider `O=S(=O)(O)c1cccc2c(/N=N/c3ccc(/N=N/c4ccc(Nc5ccccc5)c5c(S(=O)(=O)O)cccc45)c4ccccc34)cccc12`, for which the LD50 is 15000 mg/kg.
Turning to `CCc1ccc(Oc2ccc(C)cc2CC(=O)O)c(Cl)c1`, the 50% lethal dose (LD50) is 2850 mg/kg.
Regarding `O=c1[nH]c(=O)n([C@H]2C[C@H](O)[C@@H](CO)O2)cc1F`, the LD50 was 215 mg/kg.
For `Cc1c(-c2ccccc2)oc2c(C(=O)OCCN3CCCCC3)cccc2c1=O`, the LD50 was 1440 mg/kg and 1040 mg/kg.
As for `CC1=C(C(C)C)CC=CC1`, the LD50 is 4270 mg/kg.
For the molecule `CCC(C)N(C(=O)c1c(Cl)cccc1Cl)C(C)CC` (stereo unspecified), the median lethal dose (LD50) is 1450 mg/kg.
Regarding `O=C1C(Cl)C2(Cl)C3C(Cl)OCC3C1(Cl)C2(Cl)Cl` (stereo unspecified), the LD50 was 100 mg/kg.
On to `CN(Cc1ccccc1)N=O`, for which the LD50 is 18 mg/kg.
`CCCCC(CC)OCCO` (stereo unspecified): the LD50 is 2280 mg/kg.
For the molecule `CC(C)(O)C#CC(C)(C)O`, the 50% lethal dose (LD50) was 9000 mg/kg.
Turning to `Cc1c(Cl)c(=O)oc2cc(OP(=O)(OCCCl)OCCCl)ccc12`, the LD50 was 900 mg/kg.
Turning to `NCCOCCO`, the LD50 is 3000 mg/kg.
`O=C(OCCCOC(=O)c1ccccc1)c1ccccc1`: the median lethal dose (LD50) was 24000 mg/kg.
Regarding `NS(=O)(=O)C1CCCCC1`, the median lethal dose (LD50) is 80 mg/kg.
With `O=C(O)C1CCc2cc(C3CCCCC3)c(O)cc21` (stereo unspecified), the median lethal dose (LD50) was 450 mg/kg.
`OC[C@@H](O)[C@@H](O)[C@H](O)[C@@H](O)CO`: the LD50 was 15900 mg/kg.
Regarding `COc1ccc(CCN(C)CCc2ccc(OC)c(OC)c2)cc1OC`, the LD50 is 178 mg/kg.
Consider `O[C@H](c1cc(-c2ccc(C(F)(F)F)cc2)nc(C(F)(F)F)c1)[C@H]1CCCCN1`, for which the median lethal dose (LD50) was 518 mg/kg.
As to `CCCS(=O)(=O)/C=C/S(=O)(=O)CCC`, the LD50 was 200 mg/kg.
In the case of `O=C(Cl)c1cc(Cl)cc(Cl)c1`, the LD50 was 794 mg/kg.
For `ClC(Cl)Cc1ccccc1`, the LD50 is 5500 mg/kg.
Regarding `O=C(O)/C=C/C(=O)O`, the median lethal dose (LD50) was 3850 mg/kg.
For `FC(F)(F)c1nc2c(Br)c(Br)c(Cl)c(Br)c2[nH]1`, the median lethal dose (LD50) was 8.32 mg/kg.
In the case of `S=P(OCCCl)(OCCCl)OCCCl`, the median lethal dose (LD50) is 820 mg/kg.
On to `Cc1ccc(Oc2cc(SCC(=O)NN)ncn2)cc1`, for which the LD50 is 460 mg/kg.
For `CN1CC[C@]23c4c5ccc(O)c4O[C@H]2[C@H](N=[N+]=[N-])CC[C@H]3[C@H]1C5`, the 50% lethal dose (LD50) is 62 mg/kg.
Regarding `Clc1cc2c(cc1Cl)Oc1c(cc(Cl)c(Cl)c1Cl)O2`, the median lethal dose (LD50) was 0.206 mg/kg.
With `COCCNC(=O)CSP(=S)(OC)OC`, the 50% lethal dose (LD50) was 420 mg/kg.
For the molecule `CCCCCCCOCCOCCO`, the LD50 was 2940 mg/kg.
Consider `Cc1ccc(C(C)OC(=O)C2(C)CCC(C(=O)O)C2(C)C)cc1` (stereo unspecified), for which the LD50 was 2810 mg/kg.
On to `CCc1nccnc1C`, for which the LD50 was 600 mg/kg.
Turning to `COc1ccc(OC)c(C(O)CNC(=O)CN)c1` (stereo unspecified), the median lethal dose (LD50) was 68.8 mg/kg.
As to `CC(C(=O)O)c1ccc(N2CC3=C(CC=CC3)C2=O)cc1` (stereo unspecified), the LD50 was 328 mg/kg.
Regarding `CN(C)CCOc1ccccc1Cc1ccccc1`, the LD50 is 1470 mg/kg and 1400 mg/kg.
As to `O=C1c2ccccc2C(=O)N1CCc1ccccn1`, the 50% lethal dose (LD50) was 860 mg/kg.
With `CCCCCCC1=CC(=O)CC(c2ccc3c(c2)OCO3)C1` (stereo unspecified), the LD50 was 5200 mg/kg.
